In the NIST ThermoML archive (doi:10.1021/je900216m):

Test: osmotic coefficient (dimensionless); mn = molality of the nth substance listed, in mol/kg
Details: Liquid, isopiestic method

CCCC[N+](CC)(CC)CC.[Br-] [butyltriethyl ammonium bromide] + O
Details | osmotic coefficient
283.15 K, m1 = 0.1033 | 0.9271
283.15 K, m1 = 0.1376 | 0.9231
283.15 K, m1 = 0.2187 | 0.9188
283.15 K, m1 = 0.2974 | 0.9175
283.15 K, m1 = 0.3319 | 0.9169
283.15 K, m1 = 0.4688 | 0.92
283.15 K, m1 = 0.555 | 0.9241
283.15 K, m1 = 0.679 | 0.9288
283.15 K, m1 = 0.78 | 0.934
283.15 K, m1 = 0.8485 | 0.9393
283.15 K, m1 = 0.9497 | 0.9464
288.15 K, m1 = 0.1039 | 0.9158
288.15 K, m1 = 0.1569 | 0.904
288.15 K, m1 = 0.2793 | 0.8916
288.15 K, m1 = 0.3789 | 0.8853
288.15 K, m1 = 0.4818 | 0.884
288.15 K, m1 = 0.6069 | 0.8837
288.15 K, m1 = 0.6983 | 0.8853
288.15 K, m1 = 0.8052 | 0.8899
288.15 K, m1 = 0.8847 | 0.8929
288.15 K, m1 = 1.028 | 0.8989

CCC(C)[N+](C(C)CC)(C(C)CC)C(C)CC.[Br-] (stereo not given) [tetra-sec-butyl ammonium bromide] + O
Details | osmotic coefficient
283.15 K, m1 = 0.1033 | 0.927
283.15 K, m1 = 0.1377 | 0.9222
283.15 K, m1 = 0.2195 | 0.9154
283.15 K, m1 = 0.2991 | 0.9123
283.15 K, m1 = 0.3339 | 0.9114
283.15 K, m1 = 0.4732 | 0.9114
283.15 K, m1 = 0.5619 | 0.9128
283.15 K, m1 = 0.6887 | 0.9157
283.15 K, m1 = 0.7927 | 0.919
283.15 K, m1 = 0.8651 | 0.9213
283.15 K, m1 = 0.9705 | 0.9261
288.15 K, m1 = 0.1042 | 0.913
288.15 K, m1 = 0.1572 | 0.9021
288.15 K, m1 = 0.2811 | 0.8859
288.15 K, m1 = 0.3824 | 0.8772
288.15 K, m1 = 0.4912 | 0.867
288.15 K, m1 = 0.6212 | 0.8632
288.15 K, m1 = 0.7168 | 0.8624
288.15 K, m1 = 0.8295 | 0.8638
288.15 K, m1 = 0.9119 | 0.8663
288.15 K, m1 = 1.06 | 0.8713

CCCC[N+](CCCC)(CCCC)CCCC.[Br-] [tetrabutylammonium bromide] + O
Details | osmotic coefficient
283.15 K, m1 = 0.1035 | 0.9257
283.15 K, m1 = 0.138 | 0.9204
283.15 K, m1 = 0.2197 | 0.9146
283.15 K, m1 = 0.2995 | 0.9111
283.15 K, m1 = 0.3343 | 0.9104
283.15 K, m1 = 0.4739 | 0.9101
283.15 K, m1 = 0.5629 | 0.9111
283.15 K, m1 = 0.6903 | 0.9136
283.15 K, m1 = 0.7953 | 0.916
283.15 K, m1 = 0.8682 | 0.918
283.15 K, m1 = 0.9751 | 0.9217
288.15 K, m1 = 0.1045 | 0.9107
288.15 K, m1 = 0.1582 | 0.8964
288.15 K, m1 = 0.2837 | 0.8776
288.15 K, m1 = 0.3864 | 0.8681
288.15 K, m1 = 0.4954 | 0.8596
288.15 K, m1 = 0.628 | 0.8539
288.15 K, m1 = 0.7262 | 0.8512
288.15 K, m1 = 0.8429 | 0.8501
288.15 K, m1 = 0.9276 | 0.8517
288.15 K, m1 = 1.079 | 0.8566

CC(C)C[N+](CC(C)C)(CC(C)C)CC(C)C.[Br-] [tetra-iso-butyl ammonium bromide] + O
Details | osmotic coefficient
283.15 K, m1 = 0.1035 | 0.9253
283.15 K, m1 = 0.1376 | 0.9231
283.15 K, m1 = 0.2192 | 0.9167
283.15 K, m1 = 0.2986 | 0.9138
283.15 K, m1 = 0.3332 | 0.9133
283.15 K, m1 = 0.4724 | 0.9129
283.15 K, m1 = 0.5608 | 0.9146
283.15 K, m1 = 0.6871 | 0.9179
283.15 K, m1 = 0.7904 | 0.9217
283.15 K, m1 = 0.8617 | 0.9249
283.15 K, m1 = 0.9658 | 0.9307
288.15 K, m1 = 0.1041 | 0.9142
288.15 K, m1 = 0.1569 | 0.9038
288.15 K, m1 = 0.2795 | 0.8908
288.15 K, m1 = 0.3804 | 0.8818
288.15 K, m1 = 0.4856 | 0.877
288.15 K, m1 = 0.6127 | 0.8752
288.15 K, m1 = 0.7082 | 0.8728
288.15 K, m1 = 0.8192 | 0.8747
288.15 K, m1 = 0.9012 | 0.8766
288.15 K, m1 = 1.05 | 0.8804

CCCC[N+](CC)(CC)CCCC.[Br-] [dibutyldiethylammonium bromdie] + O
Details | osmotic coefficient
283.15 K, m1 = 0.1034 | 0.9261
283.15 K, m1 = 0.1376 | 0.9232
283.15 K, m1 = 0.2189 | 0.9178
283.15 K, m1 = 0.2978 | 0.9163
283.15 K, m1 = 0.3324 | 0.9156
283.15 K, m1 = 0.4702 | 0.9172
283.15 K, m1 = 0.5576 | 0.9198
283.15 K, m1 = 0.6825 | 0.924
283.15 K, m1 = 0.7842 | 0.9289
283.15 K, m1 = 0.8544 | 0.9328
283.15 K, m1 = 0.9569 | 0.9393
288.15 K, m1 = 0.1041 | 0.9139
288.15 K, m1 = 0.1562 | 0.908
288.15 K, m1 = 0.2772 | 0.8982
288.15 K, m1 = 0.3749 | 0.8947
288.15 K, m1 = 0.4763 | 0.8941
288.15 K, m1 = 0.6002 | 0.8934
288.15 K, m1 = 0.6897 | 0.8963
288.15 K, m1 = 0.7971 | 0.8989
288.15 K, m1 = 0.8741 | 0.9038
288.15 K, m1 = 1.012 | 0.9132
